According to article PMC11591307, “An RGD-Conjugated Prodrug Nanoparticle with Blood–Brain–Barrier Penetrability for Neuroprotection Against Cerebral Ischemia–Reperfusion Injury” (Antioxidants, 2024):
Residues, ends and D or L forms follow the SMILES beside them. *: point of attachment. X1 = C[C@@H]1[C@H]2[C@H](O[C@@H]3O[C@H](CO)[C@@H](O)[C@H](O)[C@H]3O)OC=C(C(=O)*)[C@H]2C[C@@H]1O

Tests used:
BEnd.3 cells [1] = test: MTT cytotoxicity assay on BEnd.3 cells; assay type: cell-based, Mouse; details: 24 h treatment, all three concentrations, Figure S6
Experimental: Mouse brain microvascular endothelial cells (BEnd.3) were cultured in DMEM medium containing 10% FBS and maintained at 37 °C in a humidified atmosphere with 5% CO2. Drug solutions were prepared by diluting in PBS to the desired concentrations. Cells were seeded at a density of 4000 cells per well in 96-well plates. Once the cells had adhered, 25 μL of LA-1 or loganin solutions at varying concentrations were added to each well, followed by a 24 h incubation. BEnd.3 cells were treated with 3.12 or 6.25 μM of LA-1 or loganin for 24 h, followed by exposure to 200 μM tertiary-butylhydroperoxide (TBHP) for 4 h to induce oxidative stress. After the treatments, 25 μL of MTT solution (5 mg/mL) was added to each well, and the cells were incubated for an additional 4 h. The supernatant was then carefully removed, and the formazan crystals were dissolved in 150 μL of DMSO. Plates were shaken at room temperature for 15 min, and absorbance was measured at 490/570 nm using a microplate reader (Molecular Devices, SpectraMax ABS, San Jose, CA, USA). Cell viability = (Absorbance (drug well))/(Absorbance (control well)) × 100%

BEnd.3 cells [2] = test: Cellular uptake in BEnd.3 cells (LC-MS/MS); assay type: in vitro ADME, Mouse; details: 6.25 μM; for Intracellular amount over time: 3 or 6 h incubation
Experimental: BEnd.3 cells were seeded in 60mm dishes at 2 × 10⁶ cells/mL, with 5 mL of DMEM containing 10% FBS. After 12 h, the medium was replaced with 5 mL fresh medium, followed by 1 mL of 6.25 μM LA-1 solution. Cells were incubated for 3 or 6 h, washed twice with PBS, and harvested using 1 mL of HPLC-grade methanol. After vortexing for 2 min and centrifuging at 13,300 rpm for 5 min (6766-HS corning® High Speed Microcentrifuge, Corning, NY, USA), the supernatant was concentrated and reconstituted with 200 μL methanol. Samples were centrifuged again at 13,300 rpm for 10 min, and the supernatant was analyzed via LC–MS (ACQUITY UPLC I-Class/Xevo TQ-XS, Waters, Milford, MA, USA). Standard curves were prepared by serial dilutions of HPLC-grade methanol with concentrations ranging from 1 μg/mL to 100 pg/mL for each LA-1.

BEnd.3 cells [3] = test: Impact of integrin αvβ3 inhibitor c(RGDfK) on LA-1 uptake in BEnd.3 cells; assay type: in vitro ADME, Mouse; details: BEnd.3 cells pretreated 1 h with 100 μM c(RGDfK) (method: 20 nM), then 6.25 μM compound for 3 or 6 h, LC-MS/MS
Experimental: BEnd.3 cells were seeded at 2 × 10⁶ cells/mL in […], with 5 mL DMEM containing 10% FBS. After 12 h, the medium was replaced with 5 mL fresh medium and 1 mL 20 nM c(RGDfK). After 1 h, 1 mL of 6.25 μM compound solution was added, followed by incubation for 3 or 6 h. Cells were washed twice with PBS, collected in 1 mL of HPLC-grade methanol, and centrifuged at 13,300 rpm for 5 min (6766-HS corning® High Speed Microcentrifuge, Corning, NY, USA). The supernatant was concentrated and reconstituted in 200 μL methanol before a final 10 min centrifugation. The supernatant was then used for LC–MS/MS (ACQUITY UPLC I-Class/Xevo TQ-XS, Waters, Milford, MA, USA) analysis.

[4] = In vivo pharmacokinetic study, plasma; set-up: species or system rat; details: SD rats, intravenous tail injection 30 mg/kg, LC-MS/MS, n = 3
Experimental: We purchased male Sprague-Dawley (SD) rats weighing between 200 and 220 g, which had been catheterized in the jugular vein, from Beijing Sinocon Pharmaceutical Technology Co., Ltd. (Beijing, China). The rats were divided into two groups: LA-1 group and loganin group, with three rats in each group. First, 200 μL of whole blood was collected from each rat at time point zero as a blank control. Subsequently, LA-1 and loganin were administered tail via injection at a dose of 30 mg/kg, dissolved in 0.9% saline. For the pharmacokinetics of the intravenously administered drugs, blood samples of 200 μL were collected from the rats at 5, 15, 30, 45 min, 1, 1.5, 2, 3, 6, 8, 12, and 24 h, using heparinized anticoagulation tubes for processing. After each blood collection, 200 μL of perfusion solution was injected into the rats through the catheter to maintain their physiological status. To obtain the rat plasma, the samples were centrifuged immediately at 3500 rpm for 10 min (5810R) after collection. Methanol (300 μL) was added to plasma samples (100 μL) to precipitate plasma proteins, then rotary evaporation at 35 °C was used to remove methanol from the samples. The LA-1 and loganin were quantified by LC–MS/MS analysis (ACQUITY UPLC I-Class/Xevo TQ-XS, Waters, Milford, MA, USA).

[5] = Intra-brain distribution after ischemic injury; assay type: in vivo, rat; details: MCAO rats, LA-1 10 mg/kg vs loganin 30 mg/kg i.v., 3 h after administration, right hemisphere, LC-MS/MS, n = 3
Experimental: To investigate the distribution of LA-1 and loganin within the brain, the experimental protocol was as follows: First, the rats were subjected to 2 h of induced ischemia, after which the filament was removed to allow for reperfusion. Subsequently, LA-1 (10 mg/kg) and loganin (30 mg/kg) were administered via tail vein injection. […] At the 3 h time point, the rats were anesthetized, perfused with saline via the heart, and then euthanized to collect brain tissue. The brain tissue was divided into left and right hemispheres, with the right hemisphere representing the ischemic region. The right hemisphere was placed into a 5 mL centrifuge tube, and 600 μL of pre-chilled PBS was added, followed by homogenization on ice. A 200 μL aliquot of the homogenate was combined with 200 μL of chromatography-grade methanol and 200 μL of chromatography-grade acetonitrile, and subjected to ultrasonic treatment for 5 min. The mixture was then centrifuged at 13,000 rpm for 10 min at 4 °C, and the supernatant was collected for concentration. After concentration, 200 μL of chromatography-grade methanol was added for reconstitution, followed by another round of high-speed centrifugation to obtain the supernatant. Finally, the target molecules were quantified using LC–MS/MS (ACQUITY UPLC I-Class/Xevo TQ-XS, Waters, Milford, MA, USA). […]

[6] = H&E staining of heart, liver, spleen and kidney (biosafety in vivo); set-up: species or system rat; details: Figure S7
Experimental: (§1) Fresh brain, heart, liver, spleen, and kidney tissues from rats were fixed in 4% paraformaldehyde, dehydrated, embedded in paraffin, and sectioned into 4 µm slices. For HE staining, the sections were deparaffinized using a dewaxing agent (G1128, Solarbio, Beijing, China), rehydrated in ethanol of various concentrations, stained with hematoxylin and eosin, dehydrated, and sealed with neutral resin. For Nissl staining, thin sections were immersed in the staining solution for 15 min (G1086, Solarbio, Beijing, China), washed with water, rapidly dehydrated with absolute ethanol, and cleared in xylene for 5 min. The sections were then mounted with neutral resin. Finally, the sections were observed using a light microscope (Nikon Eclipse E100, Tokyo, Japan) and analyzed with a 3D viewer.

[7] = Particle size and zeta potential; assay type: physicochemical; details: laser nanoparticle sizer Nano-ZS90
Experimental: The size distribution and zeta potential of LA-1 and loganin were determined using a laser nanoparticle sizer (Nano-ZS90, Malvern Instruments Ltd., Malvern, Worcestershire, UK).

[8] = Morphology by TEM, SEM and AFM; assay type: physicochemical; details: SEM, AFM, samples in deionized water, dried
Experimental: Each sample was further diluted to 0.1 mg/mL, and 10 μL was placed dropwise onto copper grids and dried at room temperature for 7 days. Transmission electron microscopy (TEM, […], Tokyo, Japan) and scanning electron microscopy (SEM, Hitachi, S-4800, Tokyo, Japan) were used to observe the morphology. In total, 1 mg of LA-1 or loganin was ultrasonically dispersed in 1 mL of deionized water. Then, 100 μL of the samples were dropped onto 10 × 10 mm mica sheets and air-dried overnight. The surface morphology was characterized by atomic force microscopy (AFM, Bruker, Multimode 8, Bruker, Billerica, Germany).

MCAO rats = test: MCAO cerebral ischemia-reperfusion injury model; assay type: in vivo, rat; details: for Neurological score (Zelonga): 22 h post-treatment, loganin 30 mg/kg, LA-1 10 mg/kg i.v.; for Neurological score (Zelonga) / Infarct area versus model (TTC staining): edaravone 3 mg/kg
Experimental: A selection of 6–8-week-old Sprague–Dawley (SD) male rats weighing 250 to 280 g were divided into five groups, with 12 rats in each group: sham group, model group (MCAO), edaravone group (3 mg/kg), LA-1 group (10 mg/kg), and loganin group (30 mg/kg). In all groups of rats, anesthesia was induced with 3% isoflurane and then maintained at 2.5% isoflurane during surgery. Briefly, a 1–2 cm incision was made along the midline of the rat’s neck to expose the right carotid artery. Then, a nylon suture (A5-243650, Beijing Cinontech Co. Ltd., Beijing, China) coated with silica gel was inserted through the external carotid artery (ECA) into the middle […], which was then occluded. In this instance, the monofilament was not inserted in the sham group. After 2 h, the nylon suture was removed to allow reperfusion, and different drugs were immediately administered to the rats via the tail vein. Additionally, the sham and model groups received an equivalent dose of distilled water, with a dosage of 2 mL/kg. Cerebral blood flow was measured using a laser speckle flow imaging system (RWD Life science Co., Ltd., RFLSI ZW, Shenzhen, China) at three distinct time points: before ischemia, 2 h after ischemia, and 22 h after reperfusion. Neurological function scores for the treatment groups were assessed blindly at 22 h post-MCAO using the ZeLonga scoring system, after which the anesthetized rats were quickly euthanized. The brain tissue was harvested and then sectioned into seven slices, with six slices subjected to 2,3,5-triphenyltetrazolium chloride (TTC) staining to calculate the brain infarct area, while the remaining slice was preserved for future use.
as §1
Paraffin sections were prepared as described for HE staining. The sections were dewaxed and antigen retrieval was performed using citric acid (pH 6.0). The sections were blocked in 0.1% Triton in PBS for 15 min. TUNEL reaction solution (TDT:dUTP:buffer = 1:5:50) was added, followed by blocking with BSA. After washing, sections were incubated with the secondary antibody (Cy3-goat anti-rabbit, GB21303, 1:300) at room temperature for 50 min. Finally, after PBS washing, the sections were stained with DAPI, mounted with an anti-fading mounting medium, and images were acquired using a fluorescence microscope (Nikon Eclipse C1, Tokyo, Japan).

[9] = 22 h reperfusion, loganin 30 mg/kg i.v.
[10] = LA-1 10 mg/kg, loganin 30 mg/kg i.v.

Compound	Cell viability (cytotoxicity) (BEnd.3 cells [1])	Intracellular amount over time (BEnd.3 cells [2])	Cellular uptake of LA-1 relative to loganin (BEnd.3 cells [2]; 6 h incubation, n = 3)	Decrease of cellular uptake in the presence of c(RGDfK) (BEnd.3 cells [3])	Time at which plasma concentration was below the limit of detection / undetectable [4] [min]	half-life ([4]; male, Sprague-Dawley, rat) [min]	Brain accumulation in ischemic brain tissue [5]	Pathophysiological changes in heart, liver, spleen and kidney tissue sections [6]	polydispersity index (PDI) [7]	Particle Size ([7]; mean ± SD) [nm]	Zeta Potential ([7]; mean ± SD) [mV]	Nanostructure morphology [8]	Plasma half-life [4] [min]	Neurological score (Zelonga) (MCAO rats)	Infarct area (TTC staining) (MCAO rats; 22 h reperfusion, LA-1 10 mg/kg, loganin 30 mg/kg i.v.) [%]	Infarct area versus model (TTC staining) (MCAO rats; [9])	H&E staining of cortical neurons (MCAO rats; [10])	Nissl staining of neurons (MCAO rats; [10])
CC(C)[C@H](NC(=O)[C@H](CC(=O)O)NC(=O)CNC(=O)[C@H](CCCNC(=N)N)NC(=O)C1=CO[C@@H](O[C@@H]2O[C@H](CO)[C@@H](O)[C@H](O)[C@H]2O)[C@@H]2[C@@H](C)[C@@H](O)C[C@H]12)C(=O)O [LA-1, LA-Arg-Gly-Asp-Val] (X1-RGDV-OH)	no significant change	continued to accumulate	approximately 2148 fold	approximately 3 fold	90	~10	dramatically higher than that of loganin	No significant pathophysiological changes	–	–	–	–	–	–	–	–	–	–
COC(=O)C1=CO[C@@H](O[C@@H]2O[C@H](CO)[C@@H](O)[C@H](O)[C@H]2O)[C@@H]2[C@@H](C)[C@@H](O)C[C@H]12 [Loganin]	no significant change	reached a plateau after 3 h	–	–	180	–	–	–	0.194	231.5 ± 81.23	−4.16 ± 4.40	irregular and unevenly dispersed	~45	reduction trend in neurological score but without statistically significant difference	16.843	significant infarct area reduction	improved the morphology, though to a lesser extent than LA-1	the recovery was less pronounced compared to LA-1
CC1=NN(c2ccccc2)C(=O)C1 [edaravone, Edaravone]	–	–	–	–	–	–	–	–	–	–	–	–	–	reduction trend in neurological score but without statistically significant difference	–	significant infarct area reduction	–	–
